{"source": "patent US20060257934A1", "about": "(priority 2005, published 2006)", "key": {"[1]": {"system": "neuronal-like cell line NT-2 N", "conditions": "read-out: EC50 for diazepam; cited from earlier work"}, "[2]": {"target": "α1-containing isoforms of the GABA(A) receptor", "conditions": "read-out: EC50 for diazepam, published electrophysiological recordings; α1-containing isoforms in various expression systems; cited from earlier work"}, "[3]": {"system": "hippocampal granule cells", "conditions": "read-out: EC50 for diazepam; cited from earlier work"}, "[4]": {"target": "T1, GABAA receptor (rat α1β2 γ2) (Rattus norvegicus, UniProt P18508+P62813+P63138)", "T1 construct": "expressed in transfected cells", "T1 sequence (P62813 28-455)": "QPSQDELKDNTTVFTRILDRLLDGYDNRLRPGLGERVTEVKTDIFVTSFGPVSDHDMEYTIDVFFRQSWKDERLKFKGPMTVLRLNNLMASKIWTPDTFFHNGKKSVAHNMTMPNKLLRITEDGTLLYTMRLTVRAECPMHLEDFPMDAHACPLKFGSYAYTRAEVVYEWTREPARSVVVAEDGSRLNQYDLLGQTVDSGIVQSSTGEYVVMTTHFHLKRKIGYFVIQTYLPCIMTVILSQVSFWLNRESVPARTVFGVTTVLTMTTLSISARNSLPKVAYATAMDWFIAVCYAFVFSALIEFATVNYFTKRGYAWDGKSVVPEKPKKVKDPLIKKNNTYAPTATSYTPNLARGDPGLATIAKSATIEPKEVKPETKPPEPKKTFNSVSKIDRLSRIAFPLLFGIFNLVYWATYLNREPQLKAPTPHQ", "T1 sequence (P63138 25-474 limits assumed)": "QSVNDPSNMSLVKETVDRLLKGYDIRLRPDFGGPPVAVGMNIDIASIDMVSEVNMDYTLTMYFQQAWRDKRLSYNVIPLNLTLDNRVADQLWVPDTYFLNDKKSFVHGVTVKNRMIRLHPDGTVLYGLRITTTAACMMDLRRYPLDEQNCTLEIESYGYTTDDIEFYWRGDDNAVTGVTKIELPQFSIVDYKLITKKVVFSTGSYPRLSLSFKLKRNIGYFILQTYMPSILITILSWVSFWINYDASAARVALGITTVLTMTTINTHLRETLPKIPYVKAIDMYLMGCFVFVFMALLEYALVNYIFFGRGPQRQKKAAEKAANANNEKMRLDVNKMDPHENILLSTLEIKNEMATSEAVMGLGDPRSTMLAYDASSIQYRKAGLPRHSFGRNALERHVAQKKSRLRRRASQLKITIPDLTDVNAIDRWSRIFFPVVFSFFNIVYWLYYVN", "T1 sequence (P18508 39-466)": "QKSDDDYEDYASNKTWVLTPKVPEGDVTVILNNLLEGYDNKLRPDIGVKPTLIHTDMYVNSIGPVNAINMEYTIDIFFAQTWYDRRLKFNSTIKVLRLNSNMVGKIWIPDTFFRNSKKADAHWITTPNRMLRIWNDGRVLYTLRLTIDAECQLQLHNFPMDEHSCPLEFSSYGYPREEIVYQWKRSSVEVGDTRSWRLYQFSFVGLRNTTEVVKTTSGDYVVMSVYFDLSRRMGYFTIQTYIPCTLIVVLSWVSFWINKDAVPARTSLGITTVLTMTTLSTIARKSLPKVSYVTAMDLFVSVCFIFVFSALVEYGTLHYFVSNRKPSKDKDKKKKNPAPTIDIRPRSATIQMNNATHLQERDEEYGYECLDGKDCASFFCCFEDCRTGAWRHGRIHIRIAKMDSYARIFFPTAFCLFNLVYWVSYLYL", "assay": "cell-based", "description": "Doubly transfected cell lines were generated that express GABAA receptor (rat α1β2 γ2) together with a yellow fluorescent protein (YFP) Topaz-based halide sensor (46/148/152 mutant).\nDoubly transfected cells were plated onto black-walled, clear-bottomed, poly-D-lysine-coated 384-well plates (Becton Dickinson Biosciences). Prior to the assay, the cell medium was removed and replaced with chloride-free plating medium (CFPM; see the composition below). After the incubation in CFPM for 3-4 hours at 37° C. in a 5% CO2 atmosphere, the medium was removed and replaced with chloride-free assay buffer (CFAB; see the composition below ), containing the final concentrations of test compounds. The cells were incubated for 15-20 minutes in the dark (to preserve fluorescence of the YFP) at room temperature (RT). Once the incubation was complete, the cell plates were transferred to the FLIPR (Molecular Devices Inc., Sunnyvale, Calif.) for the assay.\nYFP was excited with 488 nm wavelength light and the fluorescence measured using a 540/60 nm bandpass emission filter. FLIPR settings were routinely adjusted so that the background fluorescence reading at the beginning of the assay was 20,000-50,000 counts/ms. After measuring a baseline readout of 10 seconds, the stimulus buffer was added to the well and signal was recorded for 2-4 more minutes. The stimulus buffer comprised CFAB, except that the sodium gluconate component was replaced with sodium iodide. Note that the addition of the iodide causes quenching of the fluorescent signal. In the majority of the experiments, the final concentration of sodium iodide in the stimulus buffer was about 5 mM.\nThe fluorescence response was corrected for the background fluorescence, as well as for the fluorescence changes, caused by iodide only. […] The initial analysis and data export was done using FLIPR-384 software (Version 1.25).\nMicrosoft Excel® was used to plot concentration-response curves and determine an EC50 value. […]"}}, "note": "Read-outs that look alike come from different tables or passages of the source."}
{"smiles": "CN1C(=O)CN=C(c2ccccc2)c2cc(Cl)ccc21", "note": "[diazepam]", "values": [{"measurement": "EC50", "setting": "[1]", "result": 74, "unit": "nM"}, {"measurement": "EC50", "setting": "[2]", "result": "53 to 70", "unit": "nM"}, {"measurement": "EC50", "setting": "[3]", "result": 122, "unit": "nM"}, {"measurement": "Effect on GABA-induced fluorescent signal", "setting": "[4]", "result": "concentration-dependent increase"}]}
{"smiles": "CC(=O)[C@H]1CC[C@H]2[C@@H]3CC[C@H]4C[C@H](O)CC[C@]4(C)[C@H]3CC[C@]12C", "note": "[allopregnanolone]", "values": [{"measurement": "Effect on GABA-induced fluorescent signal", "setting": "[4]; against constant GABA 0.25 μM", "result": "concentration-dependent increase"}]}
{"smiles": "CN1CCc2cc3c(cc2[C@H]1[C@@H]1OC(=O)c2c1ccc1c2OCO1)OCO3", "note": "[bicuculline]", "values": [{"measurement": "IC50", "setting": "[4]", "result": "4700 ± 900", "unit": "nM"}]}
